# Experiments:
# [1] = system: riboswitch 15D10; experiment: Luciferase reporter with 15D10 riboswitch (Luci-15D10) in HEK 293 cells; format: cell-based, human; settings: Homo sapiens, HEK293, 24 h, 50 μM, HEK 293 cells, read-out: Fold increase in riboswitch 15D10-regulated luciferase expression, HEK
# Experimental: Transfection: 3.5×10^4 human embryonic kidney (HEK) 293 cells were plated in a 96-well flat bottom plate the day before transfection. Plasmid DNA (500 ng) was added to a tube or a 96-well U-bottom plate. […] Then, 50 μL of this diluted transfection reagent was added to the DNA, mixed, and incubated at RT for 20 min. Finally, 7 μL of this solution was added to a well of cells in the 96-well plate. Four hours after transfection, medium containing transfection solution was replaced by medium containing either TPP, fursultiamine, prosultiamine, bisbentiamine, beclotiamine hydrochloride, or sulbutiamine as aptamer inducers.
# Firefly luciferase assay of cultured cells: Twenty-four hours after media change, plates were removed from the incubator, and equilibrated to RT for several minutes on a lab bench, then aspirated. Glo-lysis buffer (Promega, 100 μL, RT) was added, and the plates allowed to remain at RT for at least 5 minutes. Then, the well contents were mixed by 50 μL trituration, and 20 μL of each sample was mixed with 20 μL of bright-glo reagent (Promega) that had been diluted to 10% in glo-lysis buffer. 96 wells were spaced on an opaque white 384-well plate. Following a 5 min incubation at RT, luminescence was measured using a Tecan machine with 500 ms read time. The luciferase activity was expressed as mean arbitrary light units (ALU)±S.D., and fold induction was calculated as the quotient of the luciferase activity obtained from cells with TPP or analog treatment divided by the luciferase activity obtained from cells without TPP or analog treatment.
# [2] = system: riboswitch 15D10; experiment: Luciferase reporter with 15D10 riboswitch (Luci-15D10) in AML12 cells; format: cell-based, mouse; settings: Mus musculus, AML12, 24 h, 50 μM, AML12 cells, read-out: Fold increase in riboswitch 15D10-regulated luciferase expression, AML
SMILES,fold induction at 50 µM ([1]; Table 2),fold induction at 50 µM ([2]; Table 2),fold induction at 50 µM ([1]; Table 3),fold induction at 50 µM ([2]; Table 3)
"C/C(=C(\CCO)SCOC(=O)c1ccc2c(c1)C(C)(C)CCC2(C)C)N(C=O)Cc1cnc(C)nc1N [Compound M99, (Z)-((2-(N-((4-amino-2-methylpyrimidin-5-yl)methyl)formamido)-5-hydroxypent-2-en-3-yl)thio)methyl 5,5,8,8-tetramethyl-5,6,7,8-tetrahydronaphthalene-2-carboxylate]",0.2,0.4,–,–
"CCOc1ccc2ccccc2c1C(=O)OCS/C(CCO)=C(/C)N(C=O)Cc1cnc(C)nc1N [Compound M100, (Z)-((2-(N-((4-amino-2-methylpyrimidin-5-yl)methyl)formamido)-5-hydroxypent-2-en-3-yl)thio)methyl 2-ethoxy-1-naphthoate]",1.1,0.4,–,–
"C/C(=C(\CCO)SCOC(=O)C(C)(C)Cc1ccc2ccccc2c1)N(C=O)Cc1cnc(C)nc1N [Compound M101, (Z)-((2-(N-((4-amino-2-methylpyrimidin-5-yl)methyl)formamido)-5-hydroxypent-2-en-3-yl)thio)methyl 2,2-dimethyl-3-(naphthalen-2-yl)propanoate]",88.6,128,–,–
"C/C(=C(\CCO)SCOC(=O)C(C)(c1ccccc1)c1ccccc1)N(C=O)Cc1cnc(C)nc1N [Compound M103, (Z)-((2-(N-((4-amino-2-methylpyrimidin-5-yl)methyl)formamido)-5-hydroxypent-2-en-3-yl)thio)methyl 2,2-diphenylpropanoate]",0.9,0.5,–,–
"C/C(=C(\CCO)SCOC(=O)C(c1ccccc1)(c1ccccc1)c1ccccc1)N(C=O)Cc1cnc(C)nc1N [Compound M105, (Z)-((2-(N-((4-amino-2-methylpyrimidin-5-yl)methyl)formamido)-5-hydroxypent-2-en-3-yl)thio)methyl 2,2,2-triphenylacetate]",0.2,0.2,–,–
"C/C(=C(\CCO)SCOC(=O)C(C)(C)c1ccc2ccccc2c1)N(C=O)Cc1cnc(C)nc1N [Compound M107, (Z)-((2-(N-((4-amino-2-methylpyrimidin-5-yl)methyl)formamido)-5-hydroxypent-2-en-3-yl)thio)methyl 2-methyl-2-(naphthalen-2-yl)propanoate]",26,40.2,–,–
"COc1ccc2c(C(=O)S/C(CCO)=C(/C)N(C=O)Cc3cnc(C)nc3N)cccc2c1 [Compound M108, (Z)—S-(2-(N-((4-amino-2-methylpyrimidin-5-yl)methyl)formamido)-5-hydroxypent-2-en-3-yl) 6-methoxynaphthalene-1-carbothioate]",75.8,129,–,–
"CCOc1ccc(C(=O)S/C(CCO)=C(/C)N(C=O)Cc2cnc(C)nc2N)c2ccccc12 [Compound M109, (Z)—S-(2-(N-((4-amino-2-methylpyrimidin-5-yl)methyl)formamido)-5-hydroxypent-2-en-3-yl) 4-ethoxynaphthalene-1-carbothioate]",22.6,87.3,–,–
"CCc1ccc(C(=O)S/C(CCO)=C(/C)N(C=O)Cc2cnc(C)nc2N)c2ccccc12 [Compound M110, (Z)—S-(2-(N-((4-amino-2-methylpyrimidin-5-yl)methyl)formamido)-5-hydroxypent-2-en-3-yl) 4-ethylnaphthalene-1-carbothioate]",65.7,146,–,–
"C/C(=C(\CCO)SC(=O)c1cccc2c(Br)cccc12)N(C=O)Cc1cnc(C)nc1N [Compound M111, (Z)—S-(2-(N-((4-amino-2-methylpyrimidin-5-yl)methyl)formamido)-5-hydroxypent-2-en-3-yl) 5-bromonaphthalene-1-carbothioate]",181,175,–,–
"C/C(=C(\CCO)SC(=O)c1ccccc1Oc1ccccc1)N(C=O)Cc1cnc(C)nc1N [Compound M113, (Z)—S-(2-(N-((4-amino-2-methylpyrimidin-5-yl)methyl)formamido)-5-hydroxypent-2-en-3-yl) 2-phenoxybenzothioate]",213,272,265,348
"C/C(=C(\CCO)SC(=O)c1ccc(C(C)(C)C)cc1)N(C=O)Cc1cnc(C)nc1N [Compound M114, (Z)—S-(2-(N-((4-amino-2-methylpyrimidin-5-yl)methyl)formamido)-5-hydroxypent-2-en-3-yl) 4-(tert-butyl)benzothioate]",50.1,88.8,–,–
"CCOc1cc(C(C)(C)C)ccc1C(=O)S/C(CCO)=C(/C)N(C=O)Cc1cnc(C)nc1N [Compound M115, (Z)—S-(2-(N-((4-amino-2-methylpyrimidin-5-yl)methyl)formamido)-5-hydroxypent-2-en-3-yl) 4-(tert-butyl)-2-ethoxybenzothioate]",19.9,52.1,–,–
"C/C(=C(\CCO)SC(=O)c1c(F)cccc1Oc1ccccc1)N(C=O)Cc1cnc(C)nc1N [Compound M126, (Z)—S-(2-(N-((4-amino-2-methylpyrimidin-5-yl)methyl)formamido)-5-hydroxypent-2-en-3-yl) 2-fluoro-6-phenoxybenzothioate]",–,–,147,305
"C/C(=C(\CCO)SC(=O)c1c(Cl)cccc1Oc1ccccc1)N(C=O)Cc1cnc(C)nc1N [Compound M127, (Z)—S-(2-(N-((4-amino-2-methylpyrimidin-5-yl)methyl)formamido)-5-hydroxypent-2-en-3-yl) 2-chloro-6-phenoxybenzothioate]",–,–,0.46,7.39
"C/C(=C(\CCO)SC(=O)c1c(C)cccc1Oc1ccccc1)N(C=O)Cc1cnc(C)nc1N [Compound M128, (Z)—S-(2-(N-((4-amino-2-methylpyrimidin-5-yl)methyl)formamido)-5-hydroxypent-2-en-3-yl) 2-methyl-6-phenoxybenzothioate]",–,–,0.56,7.87
"C/C(=C(\CCO)SC(=O)c1c(F)cccc1OCc1ccccc1)N(C=O)Cc1cnc(C)nc1N [Compound M129, (Z)—S-(2-(N-((4-amino-2-methylpyrimidin-5-yl)methyl)formamido)-5-hydroxypent-2-en-3-yl) 2-(benzyloxy)-6-fluorobenzothioate]",–,–,10.9,167
"C/C(=C(\CCO)SC(=O)c1c(F)cccc1Oc1cccc(Cl)c1)N(C=O)Cc1cnc(C)nc1N [Compound M130, (Z)—S-(2-(N-((4-amino-2-methylpyrimidin-5-yl)methyl)formamido)-5-hydroxypent-2-en-3-yl) 2-(3-chlorophenoxy)-6-fluorobenzothioate]",–,–,110,329
"C/C(=C(\CCO)SC(=O)c1cc(Cl)ccc1Oc1ccccc1)N(C=O)Cc1cnc(C)nc1N [Compound M131, (Z)—S-(2-(N-((4-amino-2-methylpyrimidin-5-yl)methyl)formamido)-5-hydroxypent-2-en-3-yl) 5-chloro-2-phenoxybenzothioate]",–,–,741,509
"C/C(=C(\CCO)SC(=O)c1ccc(C)cc1Oc1ccccc1Cl)N(C=O)Cc1cnc(C)nc1N [Compound M133, (Z)—S-(2-(N-((4-amino-2-methylpyrimidin-5-yl)methyl)formamido)-5-hydroxypent-2-en-3-yl) 2-(2-chlorophenoxy)-4-methylbenzothioate]",–,–,100,273
"C/C(=C(\CCO)SC(=O)c1cc(Cl)ccc1Oc1ccc(F)cc1)N(C=O)Cc1cnc(C)nc1N [Compound M134, (Z)—S-(2-(N-((4-amino-2-methylpyrimidin-5-yl)methyl)formamido)-5-hydroxypent-2-en-3-yl) 5-chloro-2-(4-fluorophenoxy)benzothioate]",–,–,557,408
"C/C(=C(\CCO)SC(=O)c1ccccc1Oc1cccc(C#N)c1)N(C=O)Cc1cnc(C)nc1N [Compound M135, (Z)—S-(2-(N-((4-amino-2-methylpyrimidin-5-yl)methyl)formamido)-5-hydroxypent-2-en-3-yl) 2-(3-cyanophenoxy)benzothioate]",–,–,87.5,44.5
"C/C(=C(\CCO)SC(=O)c1ccccc1Oc1ccccc1Cl)N(C=O)Cc1cnc(C)nc1N [Compound M136, (Z)—S-(2-(N-((4-amino-2-methylpyrimidin-5-yl)methyl)formamido)-5-hydroxypent-2-en-3-yl) 2-(2-chlorophenoxy)benzothioate]",–,–,132,263
